# Source: patent publication US20040043980A1, “Stable compositions of oxapenem-3-carboxylic acids by co-lyophilisation with pharmaceutical carriers” (priority 2000, published 2004)
# What was measured:
# Details in all cases: 42 days
# [1] = Shelf stability: appearance of the lyophilized powder; format: physicochemical
# Experimental: (§1) Several samples in glass ampoules were kept without and over drying agents for 42 days in the dark at room temperature. The content of (5R,6R,1′R)-3-(4-amino-1,1-dimethylbutyl)-6-(1′-hydroxyethyl)-7-oxo-4-1-azabicyclo[3.2.0]hept-2-ene-2-carboxylic acid was determined by UV spectroscopy in water at λmax=262 nm (ε=5000) and by plate bioassay. The appearance of the lyophilized powder and the solubility behaviour in water were also recorded.
# [2] = system: Escherichia coli; assay: Shelf stability: content by plate bioassay; format: cell-based; design: unit not given here
# Experimental: as §1, with “Several samples in glass ampoules were kept without and over drying agents for 42 days in the dark at room temperature.” left out
# The plate bioassays were carried out in sterile polystyrene dishes of 8.5 cm diameter with 10 ml of sterile Difco Nutrient Agar using Escherichia coli (inocculum ca. 10 000 cells). The inhibition diameters were compared with those obtained with 30, 25, 20, 15, 10 and 5 μg of pure title compound on a separate dish and the amount of active material calculated.
# [3] = Shelf stability: content determined by UV spectroscopy in water at 262 nm; format: physicochemical; design: unit not given here
# Experimental: as §1
# [4] = R.T., vacuum, drying agent P2O5
smiles,measurement,setting,value
"C[C@@H](O)[C@H]1C(=O)N2C(C(=O)O)=C(C(C)(C)CCCN)O[C@H]12 [neat, (5R,6R,1′R)-3-(4-amino-1,1-dimethylbutyl)-6-(1′-hydroxyethyl)-7-oxo-4-oxa-1-azabicyclo[3.2.0]hept-2-ene-2-carboxylic acid]",appearance,"[1]; R.T., drying agent SiO2",yellow
same,appearance,"[1]; R.T., drying agent none",yellow
same,appearance,[1]; [4],yellow
same,appearance,"[1]; −80° C., drying agent none",white
same,content by bioassay,"[2]; R.T., drying agent SiO2",66
same,content by bioassay,"[2]; R.T., drying agent none",40
same,content by bioassay,[2]; [4],83
same,content by bioassay,"[2]; −80° C., drying agent none",100
same,content by UV method,"[3]; R.T., drying agent SiO2",82
same,content by UV method,"[3]; R.T., drying agent none",67
same,content by UV method,[3]; [4],76
same,content by UV method,"[3]; −80° C., drying agent none",100
